The test relates to TLR7. The experiment in a line: TLR-induced cytokine release in human peripheral blood mononuclear cells (PBMC), TNF-alpha by ELISA. Conditions: human PBMC incubated 18 hours with test substance in presence of TLR7 ligand; TNF-alpha in supernatant by ELISA; read-out: EC50 (TNF-α TLR7). It counts as cell-based. The procedure:
TLR-Induced Cytokine Release in Human “Peripheral Blood Mononuclear Cells” (PBMC)
PBMCs isolated from human whole blood are stimulated using a TLR ligand.
The cytokine determination is carried out by means of ELISA kits; a proliferation/cell metabolism determination is carried out using Alamar Blue.
For the cell preparation, about 200 ml of blood are treated with an anticoagulant (e.g. citrate Monovettes). Per Leucosep tube, 15 ml of Histopaque (room temperature, RT) are poured in and forced downwards through the inserted frit by brief initial centrifugation (one minute at 1000×g, RT). 20 ml of blood are added to the tubes prepared in this way and centrifuged at 800×g for 15 minutes (RT). After centrifugation, the following layering results from the top to the bottom:
plasma-PBMC-Histopaque-filter disc-Histopaque-erythrocytes and granulocytes. The supernatant plasma is aspirated. The PBMC are transferred together with the underlying Histopaque to a new 50 ml tube, the contents of two Leucosep tubes always being added to one 50 ml tube. The 50 ml tubes are then filled to 50 ml with PBS. This cell suspension is centrifuged at 300×g (RT) for 10 minutes.
The liquid supernatant is tipped off and the cell pellet is resuspended with a little PBS and subsequently filled to 50 ml with PBS. This washing step is repeated twice. The resulting pellet is taken up in a defined volume of medium (with additives). For the testing of the substances, PBMC are incubated for 18 hours with titrated concentrations of the test substances, e.g. in the presence or absence of TLR7 or TLR9 ligands. On the next day, the supernatants are investigated for the content of TNF-alpha or other cyto- or chemokines by means of specific ELISA. The metabolic activity of the treated cells is determined with the aid of Alamar Blue.

By EC50 is commonly meant the concentration giving half of the maximal effect. On to `NC(=O)c1ccccc1NC(=O)c1csc(-c2cccnc2)n1` [Example 1.1, N-[2-(Aminocarbonyl)phenyl]-2-(3-pyridinyl)-4-thiazolecarboxamide], for which the EC50 is 900 nM.
`Cn1ncc(NC(=O)c2csc(-c3ccncc3)n2)c1C(N)=O` [Example 1.2, N-[5-(Aminocarbonyl)-1-methyl-1H-pyrazol-4-yl]-2-(4-pyridinyl)-4-thiazolecarboxamide]: the EC50 was 2400 nM.
To `NC(=O)c1ccccc1NC(=O)c1csc(-c2ccncc2)n1` [Example 1.3, N-[2-(Aminocarbonyl)phenyl]-2-(4-pyridinyl)-4-thiazolecarboxamide] belongs 1300 nM; to `Cc1ccc(NC(=O)c2csc(-c3cccnc3)n2)c(C(N)=O)c1` [Example 1.4, N-[2-(Aminocarbonyl)-4-methylphenyl]-2-(3-pyridinyl)-4-thiazolecarboxamide], 490 nM; to `Cc1ccc(C(N)=O)c(NC(=O)c2csc(-c3cccnc3)n2)c1` [Example 1.5, N-[2-(Aminocarbonyl)-5-methylphenyl]-2-(3-pyridinyl)-4-thiazolecarboxamide], 4100 nM.
To `NC(=O)c1cc(Cl)ccc1NC(=O)c1csc(-c2cccnc2)n1` [Example 1.6, N-[2-(Aminocarbonyl)-4-chlorophenyl]-2-(3-pyridinyl)-4-thiazolecarboxamide] belongs 30000 nM.
On to `NC(=O)c1ncccc1NC(=O)c1csc(-c2cccnc2)n1` [Example 1.7, 3-[(2-Pyridin-3-ylthiazole-4-carbonyl)amino]pyridine-2-carboxamide], for which the EC50 was 1800 nM.
To `Cc1ccc(C(N)=O)c(NC(=O)c2csc(-c3ccncc3)n2)c1` [Example 1.8, N-[2-(Aminocarbonyl)-5-methylphenyl]-(4-pyridinyl)-4-thiazolecarboxamide] belongs 1100 nM.
The result for `Cc1ccc(C(N)=O)c(NC(=O)c2csc(-c3cnccc3C(F)(F)F)n2)c1` [Example 1.11, N-[2-(Aminocarbonyl)-5-methylphenyl]-2-[4-(trifluoromethyl)-3-pyridinyl]-4-thiazolecarboxamide] reads 30000 nM.
The result for `CC(C)(C)c1cc(NC(=O)c2csc(-c3cccnc3)n2)c(C(N)=O)s1` [Example 1.17, N-[2-(Aminocarbonyl)-5-(1,1-dimethylethyl)-3-thienyl]-2-(3-pyridinyl)-4-thiazolecarboxamide] reads 2600 nM.
As for `NC(=O)c1cc(F)ccc1NC(=O)c1csc(-c2cccnc2)n1` [Example 1.18, N-[2-(Aminocarbonyl)-4-fluorophenyl]-2-(3-pyridinyl)-4-thiazolecarboxamide], the EC50 worked out at 1900 nM.
Turning to `NC(=O)c1ncccc1NC(=O)c1csc(-c2ccncc2)n1` [Example 1.21, 3-[(2-Pyridin-4-ylthiazole-4-carbonyl)amino]pyridine-2-carboxamide], the EC50 is 5200 nM.
The result for `NC(=O)c1ccncc1NC(=O)c1csc(-c2ccncc2)n1` [Example 1.22, 3-[(2-Pyridin-4-ylthiazole-4-carbonyl)amino]isonicotinamide] reads 7000 nM.
On to `Cc1ccc(C(N)=O)c(NC(=O)c2csc(-c3ccc(N)nc3)n2)c1` [Example 2.4, N-[2-(Aminocarbonyl)-5-methylphenyl]-2-(6-aminopyridin-3-yl)thiazole-4-carboxamide], for which the EC50 stood at 1300 nM.

The values above are taken from patent US8148411B2, “2-hetarylthiazole-4-carboxamide derivatives, their preparation and use as pharmaceuticals” (Bayer Pharma Aktiengesellschaft, priority 2007, dated 2012).
